# Assay results as given in patent publication US20220213052A1, “INHIBITORS OF RNA-BINDING PROTEINS, COMPOSITIONS THEREOF, AND THERAPEUTIC USES THEROF” (The University of North Carolina at Chapel Hill, priority 2019, published 2022).
# Tests used:
# [1] = tested on: MDA-MB-231 mouse xenograft; assay: MDA-MB-231 mouse xenograft model, KH-39 alone and with docetaxel; assay type: in vivo, mice; conditions: after three-week treatment; KH-39 i.p. 50 mg/kg 5 times per week; TXT i.v.; ***P<0.001, ****P<0.0001, n=12
# From the text: Cytotoxicity assays (as described earlier in this disclosure) for various cancer cell lines will also be performed utilizing concentrations of a compound of the present technology that are below the lethal threshold for the compound for the particular cancer (a “sub-lethal concentration”) in combination with a chemotherapeutic compound (e.g., docetaxel or doxorubicin) to illustrate compounds of the present technology sensitize cancer cell lines to chemotherapy. By way of illustration in an in vivo model, in vivo antitumor efficacy of KH-39 was examined in combination with docetaxel (a first-line chemotherapy for human breast cancer) in a MDA-MB-231 mouse xenograft model. For this, tumor-bearing female athymic mice were provided according to the protocols described earlier in the present disclosure and were randomized into four groups. One group of mice was treated with KH-39 (i.p. 50 mg/kg, 5 times per week), one group with docetaxel (TXT; i.v. at the dosages and time intervals indicated in FIG. 12), one group with a combination of KH-39 and TXT (KH-39 i.p. 50 mg/kg, 5 times per week and TXT i.v. at the dosages and time intervals indicated in FIG. 12), and one group of mice as the vehicle control. FIG. 12 illustrates the results, providing the tumor growth curves for each group.
# [2] = tested on: PC3 cells; assay: mRNA level of HuR target Msi2 after docetaxel treatment; assay type: cell-based
# From the text: FIGS. 1A-F provide the results of studies illustrating RNA-binding protein Hu antigen R (HuR) is involved in chemo/radiation-induced tumor response. […] HuR knock-down by siRNA sensitized cancer cells to X-ray radiation, with an enhancement ratio (ER) of 1.5 versus the negative control (NC) siRNA (FIG. 1F).
smiles,measurement,setting,value
"CC(=O)O[C@@]12CO[C@@H]1C[C@H](O)[C@@]1(C)C(=O)[C@H](O)C3=C(C)[C@@H](OC(=O)[C@H](O)[C@@H](NC(=O)OC(C)(C)C)c4ccccc4)C[C@@](O)([C@@H](OC(=O)c4ccccc4)[C@H]21)C3(C)C [docetaxel, reference compound]",relative tumor sizes versus control group,[1],significantly smaller than those in control group
same,mRNA levels of HuR target Musashi 2 (Msi2),[2],increased the mRNA levels of HuR target Musashi 2 (Msi2)
